{
  "source": "patent US20220202872A1",
  "about": "“METHOD FOR GENERATING A THREE-DIMENSIONAL NEUROMUSCULAR ORGANOID IN VITRO” (MAX-DELBRÜCK-CENTRUM FÜR MOLEKULARE MEDIZIN IN DER …, priority 2020, published 2022)",
  "key": {"[1]": {"test_system": "NMOs", "test": "Microelectrode array (MEA) recording of whole organoids", "type": "cell-based, human", "details": "for suppression of electrical activity: APV 50 uM and CNQX 40 uM applied together, glutamate receptor inhibitors; for local (single electrode) firings / synchronous network activity (paired electrode spikes) / rhythmic, central pattern generator-like activity: NMDA and 5-HT applied together; for local (single electrode) firings / synchronous network activity (paired electrode spikes): day 50, FIG. 6G legend: 50 uM NMDA/40 uM 5-HT; for electrical activity triggered by NMDA/5-HT cocktail: cocktail of NMDA (10 uM) and 5-HT (40 uM), applied together"}, "[2]": {"test_system": "NMOs", "test": "Contraction analysis of neuromuscular organoids before and after curare", "type": "cell-based, human", "details": "curare 10 uM; before vs after treatment", "experimental": "To investigate the functionality of NMJs, the contractile activity of NMOs was measured before and after treatment with Curare (10 uM), a blocker of AChRs.\nVideo segments of equal length were recorded using a bright-field microscope (DMI1, Leica) in 3 different regions of the same organoid using 20× zoom. To quantify muscle contractions, each movie was analyzed separately where each visible contraction was counted and then averaged for the whole organoid.\nTo analyze and map organoid muscular contraction, bright field time series images were automatically thresholded using ImageJ software to identify organoid border. A binary stack was created and contractile regions were visually identified. Regions of interest were defined and variations of organoid area (in pixel), used as a proxy of physical contraction, were plotted over the time series."}},
  "note": "Entries after “also recorded” stand apart in the source; their conditions may differ.",
  "data": [
    {"compound": "N#Cc1cc2[nH]c(=O)c(=O)[nH]c2cc1[N+](=O)[O-]", "note": "[CNQX]", "values": [
      {"measurement": "suppression of electrical activity", "setting": "[1]", "value": "reversibly suppressed nearly all electrical activity"}
    ]},
    {"compound": "curare", "values": [
      {"measurement": "block of acetylcholine-stimulated electrical activity", "setting": "[1]; curare 10 uM added after acetylcholine 10 uM, day 50 NMOs", "value": "rapidly and reversibly blocked"},
      {"measurement": "contraction of the skeletal muscles (contractile activity of NMOs)", "setting": "[2]", "value": "blocked the contraction; also recorded: organoid relaxation"}
    ]},
    {"compound": "N[C@@H](CCC(=O)O)C(=O)O", "note": "[glutamate]", "values": [
      {"measurement": "increase of spontaneous electrical activity", "setting": "[1]; acute glutamate 50 uM, day 30 and day 50 organoids", "value": "approximately 12 fold"}
    ]},
    {"compound": "CN[C@H](CC(=O)O)C(=O)O", "note": "[NMDA]", "values": [
      {"measurement": "local (single electrode) firings", "setting": "[1]", "value": "increased single firings; also recorded: notable increase"},
      {"measurement": "synchronous network activity (paired electrode spikes)", "setting": "[1]", "value": "increase in paired electrode spikes; also recorded: dramatic increase"},
      {"measurement": "rhythmic, central pattern generator-like activity", "setting": "[1]; day 50 NMOs", "value": "central pattern generator-like activity; also recorded: became rhythmic; also recorded: produced rhythmic bursts of electrical activity"},
      {"measurement": "electrical activity triggered by NMDA/5-HT cocktail", "setting": "[1]", "value": "instantaneously triggered strong activity"}
    ]},
    {"compound": "NCCc1c[nH]c2ccc(O)cc12", "note": "[5-HT, Serotonin]", "values": [
      {"measurement": "local (single electrode) firings", "setting": "[1]", "value": "increased single firings; also recorded: notable increase"},
      {"measurement": "synchronous network activity (paired electrode spikes)", "setting": "[1]", "value": "increase in paired electrode spikes; also recorded: dramatic increase"},
      {"measurement": "rhythmic, central pattern generator-like activity", "setting": "[1]; day 50 NMOs", "value": "central pattern generator-like activity; also recorded: became rhythmic; also recorded: produced rhythmic bursts of electrical activity"},
      {"measurement": "electrical activity triggered by NMDA/5-HT cocktail", "setting": "[1]", "value": "instantaneously triggered strong activity"}
    ]},
    {"compound": "CC(=O)OCC[N+](C)(C)C", "note": "[acetylcholine]", "values": [
      {"measurement": "increase of electrical activity", "setting": "[1]; acetylcholine 10 uM stimulation, day 50 NMOs", "value": "approximately 10 fold"}
    ]},
    {"compound": "NC1=N[C@H](O)[C@H]2[C@H]3O[C@]4(O)O[C@@H]([C@@H](O)[C@@]2(N1)[C@@H]4O)[C@]3(O)CO", "note": "[tetrodotoxin]", "values": [
      {"measurement": "suppression of NMDA/5-HT-triggered activity", "setting": "[1]", "value": "reversibly suppressed"}
    ]},
    {"compound": "N[C@@H](CCCP(=O)(O)O)C(=O)O", "note": "[APV]", "values": [
      {"measurement": "suppression of electrical activity", "setting": "[1]", "value": "reversibly suppressed nearly all electrical activity"}
    ]}
  ]
}
